Legend:
3T3-L1 cells = experiment: MTT cell viability / proliferation assay; type: cell-based, Mouse
Procedure: The cell viability was evaluated using the MTT assay. 3T3-L1 cells were seeded at a density of 1×10^3 in 96-well plates and incubated for 24h. Compounds 1 and 2 were added in the wells at various concentrations and then incubated at 37 °C. Cells were treated with compound 1 at concentrations of 62.5, 46.875, 31.25, 15.625, 7.81 and 3.9 µM. Cells were treated with compound 2 at concentrations of 62.5, 25.0, 12.5, 6.25 and 3.125 µM. After 24, 48, and 72 h of treatment, MTT solution was added in the wells at a final concentration of 0.5 mg/mL and incubated for 4 h. Cell culture media with MTT was removed and the formazan crystals were dissolved in 100 µl/well isopropanol/HCl (0.4%) and the absorbance was measured at 600 nm using the Infinite® 200 PRO microplate plate reader (Tecan, Zurich, Switzerland).

3T3-L1 adipocytes = experiment: Oil red o staining of intracellular lipid accumulation; type: cell-based, Mouse
Procedure: Mouse 3T3-L1 preadipocytes were maintained in proliferation medium containing DMEM supplemented with 10% (v/v) heat inactivated NBCS and 1% (v/v) penicillin-streptomycin at 37 °C with 5% CO2, humidified atmosphere. Cells were seeded in T-75 flasks at a density of 25×10^4 cells/flask. Cultures never became completely confluent according to the manufacturer's instructions. They were passaged using trypsin-EDTA solution once they reached 70-80% confluency. For differentiation, 3T3-L1 cells were seeded and after 24 h (day 1), cell differentiation was induced by changing the medium to high glucose DMEM containing 10% (v/v) heat inactivated FBS, 1% penicillin-streptomycin, 10 µg/mL insulin, 0.25 µM Dexamethasone (GAP), 0.5 mM IBMX (=differentiation medium I). On day 3, the medium was changed to high glucose DMEM containing 10% FBS, 1% penicillin- streptomycin, and 10 µg/mL insulin (=differentiation medium II). Thereafter, medium was changed every other day switching between differentiation medium I and differentiation medium II until day 12 or 23, when adipocytes were harvested. Control group preadipocytes were seeded at a higher density and harvested after two days. Test compounds were administered either at the initiation of differentiation, or after 15 days of differentiation and with every medium change. To determine the effect on preadipocyte differentiation, cells were seeded and after 24 h they were treated with neorogioldiol. Neorogioldiol was maintained in the culture medium throughout cell differentiation period. To determine the effect of neorogioldiol on mature adipocytes, cells were seeded and induced to differentiate for 14 days, then on day 15 neorogioldiol was added to the differentiation medium for 24 h before cells were harvested. Each compound used was diluted in a 90% carbowax™ 400, 10% (v/v) absolute ethanol solution serving as a control solvent. The final concentration in culture was 0.09% (v/v) carbowax and 0.01% (v/v) ethanol. […]
Oil red o staining was applied to measure lipid accumulation intracellularly. Briefly, after 12 or 23 days of differentiation, the cell culture medium was removed and the 3T3-L1 adipocytes were fixed in 3.7% formaldehyde for 60 min at room temperature. Next, a solution of 0.21% oil red o was filtered using a 0.45 µm filter followed by incubation of the fixed cells for 45 min at room temperature. Excess dye was removed and cells were washed twice with PBS. Fresh PBS was added and the lipid droplets within the differentiated 3T3-L1 cells were visualized and photographed by microscopy. For quantitative analysis, oil red o staining was eluted with 100% isopropanol and the absorbance was measured at 510 nm using the Infinite® 200 PRO microplate plate reader (Tecan, Zurich, Switzerland).

[1] = Serum biochemical toxicity markers in high fat diet-fed mice; type: in vivo, C57BL/6 adult male mice; details: intraperitoneal 0.25 mg/mouse every 48 h for 35 days; vs control group
Procedure: (§1) All procedures were conducted in compliance with protocols approved by the Animal Care Committee of the University of Crete, School of Medicine (Facility number EL91-BIOexp-06), in conjunction with the Veterinary Department of the Region of Crete, Heraklion, Crete, Greece. C57BL/6 adult male mice were maintained in a 12 h day/night cycle and 21-23 °C conditions. Mice were provided with water and either normal fat diet, or high fat diet (60% energy from fat) ad libitum. All mice were weighed every 48 h.
(§2) Neorogioldiol was first dissolved in 90% carbowaxTM 400, 10% (v/v) absolute ethanol solution and then diluted 1:10 in water for injection. A dose of 0.25 mg neorogioldiol in a total volume of 200 µl was administered intraperitoneally every 48 h in mice in high fat + neorogioldiol group starting from day 1. 4-5 mice were used per group and each experiment was performed twice.
To detect serum levels of alanine transaminase, aspartate transaminase, creatine phosphokinase and lactate dehydrogenase, serum was collected from peripheral blood via cardiac puncture under isoflurane anesthesia. Serum samples were stored at -80 °C. The levels of alanine transaminase, aspartate transaminase, creatine phosphokinase and lactate dehydrogenase were measured by standard enzymatic procedures using an automated biochemical analyzer AU5800 (Beckman).

[2] = test system: cytochrome P450 genes (Cyp1a1, Cyp2b10, Cyp3a11, Cyp3a25); experiment: Quantitative PCR of cytochrome P450 genes in liver RNA extracts; type: in vivo, C57BL/6 adult male mice; details: 0.25 mg/mouse i.p. every 48 h for 35 days; vs high-fat diet mice
Procedure: Adipocytes and preadipocytes were harvested using the TRI Reagent®. RNA isolation was carried out according to the manufacturer's instructions. The purified RNA was quantified using the Nanodrop micro-volume spectrophotometer and 500 ng of each sample were used as a template for reverse transcription. cDNA synthesis was performed using the PrimeScriptTM RT reagent Kit (TaKaRa, RR037A) according to manufacturer's instructions. The cDNA produced by the above described procedure was diluted and used as a template for two-step quantitative PCR in a StepOnePlus™ Real-Time PCR System (Applied Biosystems™, 4376600) for a maximum of 40 cycles, as follows: start step 95 °C for 3 min, repeat steps: 95 °C for 15 s and 60 °C for 30 s. Amplification was performed using KAPA SYBR® FAST Universal qPCR kit (Kapa Biosystems, KK4618) according to manufacturer's instructions. Relative quantitative analysis was accomplished calculating fold-changes of gene expression as 2-(ΔΔCt), where ΔCt is (Ct (gene of interest) - Ct (housekeeping gene)). Ppib was used as internal control gene in 3T3L1 cells and in the fat fraction of mice abdominal fat, Rps9 was used as internal control gene in the stromal vascular fraction of mice abdominal fat and Actb was used as internal control gene in liver samples. Table 1. List of primers used for quantitative real-time PCR analysis.
as §1, §2

With neorogioldiol the “concentrations that did not exhibit cytotoxicity” value (3T3-L1 cells; concentration chosen for further analyses) was 62.5 µM, the “concentration with cytostatic effects” value (3T3-L1 cells; three-day incubation (24, 48, 72 h), compound 1: after the first 24 h of treatment) was 62.5 µM and the lipid accumulation (3T3-L1 adipocytes; differentiation in presence of serial concentrations 62.5, 31.25, 15.625, 7.81 and 3.9 µM, dose-dependent) was “reduced lipid accumulation”. For the same substance, the lipid accumulation (3T3-L1 adipocytes; differentiation induced in the presence of compound, after 12 days, 1 at 62.5 µM, 2 at 25 µM) was “significantly reduced lipid accumulation”, the lipid accumulation (3T3-L1 adipocytes; mature adipocytes: differentiated 15 days, then 62.5 µM for 8 more days) was “decreased lipid accumulation” and the “alanine transaminase in serum” value [1] was “No difference”. For the same substance, the “aspartate transaminase in serum” value [1] was “No difference”, the “creatine phosphokinase in serum” value [1] was “No difference” and the “lactate dehydrogenase in serum” value [1] was “No difference”. For the same substance, the “Cyp1a1 expression in liver RNA extracts” value [2] was “no difference”, the “Cyp2b10 expression in liver RNA extracts” value [2] was “no difference” and the “Cyp3a11 expression in liver RNA extracts” value [2] was “no difference”. For the same substance, the “Cyp3a25 expression in liver RNA extracts” value [2] was “no difference”.

From patent EP4556003A1, “ANTI-OBESITY AND ANTI-DIABETIC ACTIVITY OF BROMINATED DITERPENES FROM RED ALGAE OF THE GENUS LAURENCIA AND APPLICATIONS THEREOF” (priority 2023, dated 2025)
